Experimental data taken from publication PMC6986443, “T‐495, a novel low cooperative M1 receptor positive allosteric modulator, improves memory deficits associated with cholinergic dysfunction and is characterized by low gastrointestinal side effect risk” (Pharmacology Research & Perspectives, 2020).
pEC50: −log10 of the molar value.

How the values were obtained:
[1] = target: T1, human M1R (Homo sapiens, UniProt P11229); test: Ca2+ mobilization assay, agonist activity (absence of ACh), CHO‐K1 cells; format: cell-based; parameters: expressed in transfected cells; host or cells: CHO-K1; settings: for margin between PAM and agonist activities: CHO‐K1 cells expressing human M1R
T1 sequence (P11229 1-460): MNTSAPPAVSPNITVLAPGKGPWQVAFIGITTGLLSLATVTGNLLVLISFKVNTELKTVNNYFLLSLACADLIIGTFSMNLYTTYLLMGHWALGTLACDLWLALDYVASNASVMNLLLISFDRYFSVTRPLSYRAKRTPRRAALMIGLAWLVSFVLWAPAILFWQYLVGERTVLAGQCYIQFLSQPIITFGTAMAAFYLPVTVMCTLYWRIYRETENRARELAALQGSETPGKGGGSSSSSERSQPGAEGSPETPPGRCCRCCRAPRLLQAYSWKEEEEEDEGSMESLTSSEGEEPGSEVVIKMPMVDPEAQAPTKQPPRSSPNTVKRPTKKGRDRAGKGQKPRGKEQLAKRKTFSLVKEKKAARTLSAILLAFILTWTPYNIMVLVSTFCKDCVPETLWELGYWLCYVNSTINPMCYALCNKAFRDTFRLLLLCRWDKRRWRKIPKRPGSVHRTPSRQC
Experimental: Chinese hamster ovary (CHO)‐K1 cells expressing M1R–M5R were plated on a 96‐well black, clear bottom plate at 30 000 cells/well and incubated at 37°C in an atmosphere of 5% CO2 for 1 day. On the day of the assay, cells were incubated with calcium dye buffer (Hanks’ Balanced Salt Solution (HBSS) containing 20 mmol/L HEPES, 0.1% fatty acid‐free bovine serum albumin (BSA), 0.08% pluronic F127 (Dojindo Laboratories), 2.5 μg/mL Fluo‐4 (Dojindo Laboratories), and 1.25 mmol/L probenecid (Dojindo Laboratories)) for 30 minutes at 37°C in an atmosphere of 5% CO2 and then incubated for 30 minutes at room temperature. To measure Ca^2+ mobilization using CellLux (PerkinElmer), cells were stimulated with T‐495 or MK‐7622 (0.01‐1000 nmol/L for PAM activity; 0.3‐10 000 nmol/L for agonist activity) in assay buffer (HBSS containing 20 mmol/L HEPES and 0.1% fatty acid‐free BSA) with or without an EC20 concentration of ACh. The inflection point (IP) and EC50 values were calculated using the following equation by GraphPad Prism 5 software (GraphPad Software Inc): Y=Bottom+(Top-Bottom)/1+10^(Log IPorEC50-X×HillSlope))
where X and Y are the log concentration of a compound and the percentage of Ca^2+ response, respectively, and Top and Bottom are the upper and lower plateaus, respectively.

[2] = target: T1, human M1R; test: [3H]‐pirenzepine binding assay (cooperativity, allosteric ternary complex model); parameters: expressed in transfected cells; settings: between PAM and ACh; for Cooperativity Log α: 95% confidence intervals in parentheses
Experimental: Cell membranes from FreeStyle 293 cells transiently expressing human M1R were incubated with T‐495 or MK‐7622 (0.1‐30 μmol/L), ACh (0.003‐3000 μmol/L), and 4 nmol/L [^3H]‐pirenzepine (PerkinElmer) in assay buffer (20 mmol/L HEPES, 100 mmol/L NaCl, 10 mmol/L MgCl2, and 0.1% fatty acid free BSA) for 2 hours at room temperature. The binding was terminated by filtration through GF/C filter plates (PerkinElmer) using a cell harvester (PerkinElmer) and five washed with 300 μL of 50 mmol/L Tris‐HCl. The GF/C plates were dried at 42°C; then, 25 μL of microscint 0 (PerkinElmer) was added. Radioactivity was counted using Topcount (PerkinElmer). Nonspecific binding was defined in the presence of 10 μmol/L atropine. To calculate the cooperativity of a PAM, the [^3H]‐pirenzepine binding assay data were fitted to the allosteric ternary complex model,35 using GraphPad Prism 5 software: Y=C/KC+αBC[B][C]/KBKC/1+A/KA+B/KB+C/KC+αAB[A][B]/KAKB+αBC[B][C]/KBKC
where Y is the fractional specific [^3H]‐pirenzepine binding; [A], [B], and [C] are the concentrations of ACh, a PAM, and [^3H]‐pirenzepine, respectively; K A, K B, and K C are the equilibrium dissociation constants of ACh, a PAM, and [^3H]‐pirenzepine, respectively; and αAB and αBC are the cooperativities between a PAM and ACh or [^3H]‐pirenzepine, respectively.

[3] = tested on: Sigma, non-selective; test: Selectivity panel; format: binding
Source text: (§1) The selectivity of T‐495 at 10 μmol/L against a panel of 106 targets, including receptors, enzymes, ion channels, and transporters, was characterized (Eurofins Panlabs Taiwan Ltd., Taipei, Taiwan).

[4] = target: T2, Tachykinin NK3 (Homo sapiens, UniProt P29371); test: Selectivity panel; format: binding
T2 construct: purchased Eurofins Panlabs Taiwan Ltd
Source text: as §1

[5] = tested on: Imidazoline I2, central; test: Selectivity panel; format: binding
Source text: as §1

[6] = tested on: Glycine, strychnine-sensitive; test: Selectivity panel; format: binding
Source text: as §1

[7] = tested on: Serotonin 5-HT4; test: Selectivity panel; format: binding
Source text: as §1

[8] = target: T3, IP (PGI2) (Homo sapiens, UniProt P43119); test: Selectivity panel; format: binding
T3 construct: purchased Eurofins Panlabs Taiwan Ltd
T3 sequence (P43119 whole entry): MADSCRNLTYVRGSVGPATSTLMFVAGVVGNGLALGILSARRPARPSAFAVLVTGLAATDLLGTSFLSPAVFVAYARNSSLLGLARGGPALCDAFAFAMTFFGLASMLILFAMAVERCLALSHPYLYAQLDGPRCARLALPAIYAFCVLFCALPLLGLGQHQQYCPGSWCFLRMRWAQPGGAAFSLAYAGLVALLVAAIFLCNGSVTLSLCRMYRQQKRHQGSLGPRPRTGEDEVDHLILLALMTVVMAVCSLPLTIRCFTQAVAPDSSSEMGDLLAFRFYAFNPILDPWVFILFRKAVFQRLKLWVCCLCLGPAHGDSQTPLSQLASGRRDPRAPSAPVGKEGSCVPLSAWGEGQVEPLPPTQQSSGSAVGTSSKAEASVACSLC
Source text: as §1

[9] = target: T4, Adenosine A2A (Homo sapiens, UniProt P29274); test: Selectivity panel; format: binding
T4 construct: purchased Eurofins Panlabs Taiwan Ltd
T4 sequence (P29274 whole entry): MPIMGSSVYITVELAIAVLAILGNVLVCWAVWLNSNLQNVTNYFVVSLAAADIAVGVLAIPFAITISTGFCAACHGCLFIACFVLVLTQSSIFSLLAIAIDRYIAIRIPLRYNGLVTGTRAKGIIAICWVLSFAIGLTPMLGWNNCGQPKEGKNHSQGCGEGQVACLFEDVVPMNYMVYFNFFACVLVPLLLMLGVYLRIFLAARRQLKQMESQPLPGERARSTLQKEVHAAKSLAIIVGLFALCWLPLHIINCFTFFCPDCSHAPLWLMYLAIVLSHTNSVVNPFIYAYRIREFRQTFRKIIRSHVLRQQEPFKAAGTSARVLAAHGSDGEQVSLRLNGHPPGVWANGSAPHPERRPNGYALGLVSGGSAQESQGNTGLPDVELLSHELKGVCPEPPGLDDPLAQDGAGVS
Source text: as §1

[10] = target: T5, Adrenergic β1 (Homo sapiens, UniProt P08588); test: Selectivity panel; format: binding
T5 construct: purchased Eurofins Panlabs Taiwan Ltd
T5 sequence (P08588 whole entry): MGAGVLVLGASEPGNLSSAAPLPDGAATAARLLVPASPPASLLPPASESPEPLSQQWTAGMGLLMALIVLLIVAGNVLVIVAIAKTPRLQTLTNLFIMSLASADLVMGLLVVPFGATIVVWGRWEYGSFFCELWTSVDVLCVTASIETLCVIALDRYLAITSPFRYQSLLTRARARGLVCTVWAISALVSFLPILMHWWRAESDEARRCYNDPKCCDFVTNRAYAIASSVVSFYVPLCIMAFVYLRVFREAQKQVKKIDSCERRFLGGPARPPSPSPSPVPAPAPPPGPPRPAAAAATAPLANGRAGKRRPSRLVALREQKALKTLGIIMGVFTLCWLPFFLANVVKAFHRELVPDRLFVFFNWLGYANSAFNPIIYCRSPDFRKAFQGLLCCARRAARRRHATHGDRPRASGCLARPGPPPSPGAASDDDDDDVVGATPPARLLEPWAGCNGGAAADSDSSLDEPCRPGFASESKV
Source text: as §1

[11] = target: T6, Glucocorticoid (Homo sapiens, UniProt P04150); test: Selectivity panel; format: binding
T6 construct: purchased Eurofins Panlabs Taiwan Ltd
T6 sequence (P04150 whole entry): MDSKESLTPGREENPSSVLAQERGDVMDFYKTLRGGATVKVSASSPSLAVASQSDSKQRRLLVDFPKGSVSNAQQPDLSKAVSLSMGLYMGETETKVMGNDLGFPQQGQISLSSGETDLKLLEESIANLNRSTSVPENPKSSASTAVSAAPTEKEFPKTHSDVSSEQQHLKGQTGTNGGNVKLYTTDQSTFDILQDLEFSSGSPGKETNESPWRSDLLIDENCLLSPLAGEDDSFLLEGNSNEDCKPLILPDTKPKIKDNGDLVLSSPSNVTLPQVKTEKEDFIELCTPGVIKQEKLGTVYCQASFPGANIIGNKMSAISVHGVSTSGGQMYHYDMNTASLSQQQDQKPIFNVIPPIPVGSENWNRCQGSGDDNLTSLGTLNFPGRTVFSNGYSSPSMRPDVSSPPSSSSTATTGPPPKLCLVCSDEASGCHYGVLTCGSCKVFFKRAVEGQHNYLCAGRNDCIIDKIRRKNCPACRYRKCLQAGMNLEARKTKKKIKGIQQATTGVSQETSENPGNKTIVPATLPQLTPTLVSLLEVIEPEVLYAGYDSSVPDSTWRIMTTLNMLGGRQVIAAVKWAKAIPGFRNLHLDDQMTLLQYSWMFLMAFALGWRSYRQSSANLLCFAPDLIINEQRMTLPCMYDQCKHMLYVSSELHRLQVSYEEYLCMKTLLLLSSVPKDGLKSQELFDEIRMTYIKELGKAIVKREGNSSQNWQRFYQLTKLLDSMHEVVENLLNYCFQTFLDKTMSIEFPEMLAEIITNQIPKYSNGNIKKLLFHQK
Source text: as §1

[12] = target: T7, Vasopressin V1A (Homo sapiens, UniProt P37288); test: Selectivity panel; format: binding
T7 construct: purchased Eurofins Panlabs Taiwan Ltd
T7 sequence (P37288 whole entry): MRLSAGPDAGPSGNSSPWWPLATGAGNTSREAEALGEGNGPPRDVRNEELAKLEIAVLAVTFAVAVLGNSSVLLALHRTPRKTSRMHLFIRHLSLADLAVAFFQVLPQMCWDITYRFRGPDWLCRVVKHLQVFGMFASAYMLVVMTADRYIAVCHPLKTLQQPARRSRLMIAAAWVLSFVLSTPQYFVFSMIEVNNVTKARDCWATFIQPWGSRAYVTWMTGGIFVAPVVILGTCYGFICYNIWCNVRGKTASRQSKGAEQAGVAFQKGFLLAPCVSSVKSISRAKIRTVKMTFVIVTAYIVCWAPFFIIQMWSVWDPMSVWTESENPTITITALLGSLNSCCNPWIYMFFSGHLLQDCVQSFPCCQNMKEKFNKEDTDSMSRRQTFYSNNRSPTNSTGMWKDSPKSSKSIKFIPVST
Source text: as §1

[13] = target: T8, Serotonin 5-HT2C (Homo sapiens, UniProt P28335); test: Selectivity panel; format: binding
T8 construct: purchased Eurofins Panlabs Taiwan Ltd
Source text: as §1

[14] = tested on: Glutamate, NMDA, phencyclidine; test: Selectivity panel; format: binding
Source text: as §1

[15] = tested on: Sodium channel, Site 2; test: Selectivity panel; format: binding
Source text: as §1

[16] = target: T9, Serotonin 5-HT2B (Homo sapiens, UniProt P41595); test: Selectivity panel; format: binding
T9 construct: purchased Eurofins Panlabs Taiwan Ltd
Source text: as §1

[17] = target: T10, Transporter, dopamine (DAT) (Homo sapiens, UniProt Q01959); test: Selectivity panel; format: binding
T10 construct: purchased Eurofins Panlabs Taiwan Ltd
Source text: as §1

[18] = tested on: Calcium channel L-type, dihydropyridine; test: Selectivity panel; format: binding
Source text: as §1

[19] = target: T11, GABAB1A (Homo sapiens, UniProt Q9UBS5); test: Selectivity panel; format: binding
T11 construct: purchased Eurofins Panlabs Taiwan Ltd
T11 sequence (Q9UBS5 15-961 limits assumed): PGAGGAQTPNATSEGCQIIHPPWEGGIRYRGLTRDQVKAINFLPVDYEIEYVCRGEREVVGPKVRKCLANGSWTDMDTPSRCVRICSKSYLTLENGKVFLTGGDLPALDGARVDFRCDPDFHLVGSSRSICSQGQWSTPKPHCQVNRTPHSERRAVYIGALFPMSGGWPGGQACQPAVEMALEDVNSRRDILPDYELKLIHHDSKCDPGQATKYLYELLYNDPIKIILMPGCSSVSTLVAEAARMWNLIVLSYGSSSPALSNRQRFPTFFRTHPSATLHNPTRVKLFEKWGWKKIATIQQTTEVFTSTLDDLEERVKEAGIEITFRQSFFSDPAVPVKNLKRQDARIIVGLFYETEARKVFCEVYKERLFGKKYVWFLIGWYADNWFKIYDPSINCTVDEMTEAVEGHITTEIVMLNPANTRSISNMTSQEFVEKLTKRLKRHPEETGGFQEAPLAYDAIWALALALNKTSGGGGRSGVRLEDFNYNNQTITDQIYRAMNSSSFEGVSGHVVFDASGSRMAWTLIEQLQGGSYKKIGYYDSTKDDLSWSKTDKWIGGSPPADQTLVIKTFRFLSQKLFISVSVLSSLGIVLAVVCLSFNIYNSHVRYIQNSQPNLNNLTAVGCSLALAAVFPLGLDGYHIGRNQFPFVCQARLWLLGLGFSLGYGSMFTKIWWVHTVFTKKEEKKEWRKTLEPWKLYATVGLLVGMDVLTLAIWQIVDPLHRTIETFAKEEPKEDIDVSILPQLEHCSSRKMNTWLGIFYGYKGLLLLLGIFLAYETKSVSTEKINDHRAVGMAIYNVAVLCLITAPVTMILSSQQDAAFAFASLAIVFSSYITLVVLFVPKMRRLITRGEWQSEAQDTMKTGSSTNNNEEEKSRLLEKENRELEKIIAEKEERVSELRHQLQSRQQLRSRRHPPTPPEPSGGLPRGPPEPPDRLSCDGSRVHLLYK
T11 sequence (O75899 42-941 partner): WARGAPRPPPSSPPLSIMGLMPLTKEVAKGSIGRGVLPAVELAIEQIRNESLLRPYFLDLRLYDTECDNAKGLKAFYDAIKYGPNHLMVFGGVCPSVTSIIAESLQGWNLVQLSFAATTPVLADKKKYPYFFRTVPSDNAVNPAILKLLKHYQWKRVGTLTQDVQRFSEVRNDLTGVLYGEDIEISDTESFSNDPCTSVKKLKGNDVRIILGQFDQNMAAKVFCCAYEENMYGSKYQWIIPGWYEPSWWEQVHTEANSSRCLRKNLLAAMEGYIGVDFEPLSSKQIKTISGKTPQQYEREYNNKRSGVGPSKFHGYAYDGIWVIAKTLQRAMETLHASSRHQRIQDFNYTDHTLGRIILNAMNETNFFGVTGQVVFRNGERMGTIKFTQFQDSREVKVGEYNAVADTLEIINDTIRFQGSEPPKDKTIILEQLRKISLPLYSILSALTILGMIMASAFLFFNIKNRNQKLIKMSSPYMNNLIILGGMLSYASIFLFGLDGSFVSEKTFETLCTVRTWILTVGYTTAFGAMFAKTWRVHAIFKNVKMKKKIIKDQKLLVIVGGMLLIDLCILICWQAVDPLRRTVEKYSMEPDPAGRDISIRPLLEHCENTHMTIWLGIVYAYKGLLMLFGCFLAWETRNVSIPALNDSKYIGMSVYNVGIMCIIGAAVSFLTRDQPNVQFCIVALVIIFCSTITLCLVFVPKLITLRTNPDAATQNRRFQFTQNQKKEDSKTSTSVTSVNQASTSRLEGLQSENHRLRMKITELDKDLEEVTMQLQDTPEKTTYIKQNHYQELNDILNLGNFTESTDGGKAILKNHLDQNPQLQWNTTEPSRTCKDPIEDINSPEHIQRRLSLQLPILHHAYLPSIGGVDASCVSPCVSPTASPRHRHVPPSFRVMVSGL
Source text: as §1

[20] = target: T12, Histamine H1 (Homo sapiens, UniProt P35367); test: Selectivity panel; format: binding
T12 construct: purchased Eurofins Panlabs Taiwan Ltd
T12 sequence (P35367 whole entry): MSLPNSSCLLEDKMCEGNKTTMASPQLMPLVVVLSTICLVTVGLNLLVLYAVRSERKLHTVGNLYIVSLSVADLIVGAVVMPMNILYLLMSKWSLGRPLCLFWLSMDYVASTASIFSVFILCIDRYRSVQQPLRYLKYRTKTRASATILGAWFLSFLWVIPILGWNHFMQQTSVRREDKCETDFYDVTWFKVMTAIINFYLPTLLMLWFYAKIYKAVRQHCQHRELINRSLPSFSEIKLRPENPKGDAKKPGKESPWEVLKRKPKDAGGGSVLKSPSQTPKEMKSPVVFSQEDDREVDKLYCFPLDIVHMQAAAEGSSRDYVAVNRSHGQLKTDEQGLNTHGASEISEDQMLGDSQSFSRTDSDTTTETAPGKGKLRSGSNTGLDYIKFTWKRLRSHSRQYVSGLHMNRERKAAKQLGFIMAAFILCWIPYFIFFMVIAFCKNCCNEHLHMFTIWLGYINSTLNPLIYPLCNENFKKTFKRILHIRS
Source text: as §1

For `Cc1c(Cc2ccc(Cl)nc2)cc2c(c1Cl)OCN([C@H]1CCC[C@@H]1O)C2=O` [T‐495, 8‐chloro‐6‐((6‐chloropyridin‐3‐yl)methyl)‐3‐((1S,2S)‐2‐hydroxycyclopentyl)‐7‐methyl‐2,3‐dihydro‐4H‐1,3‐benzoxazin‐4‐one], the pEC50 [1] was 6.19, the “margin between PAM and agonist activities” value [1] was 282 fold and the “Cooperativity α” value [2] was 170. The “Cooperativity Log α” value [2] was 2.23 (2.07‐2.40), the “% inhibition at 10 μM” value [3] was 25% and the inhibition at 10 µM [4] was 5%. The “% inhibition at 10 μM” value [5] was 76%, the “% inhibition at 10 μM” value [6] was 9% and the “% inhibition at 10 μM” value [7] was 22%. It also gave an inhibition at 10 µM [8] of 16%, an inhibition at 10 µM [9] of -4% and an inhibition at 10 µM [10] of 4%. For the same compound, the inhibition at 10 µM [11] was 25%, the inhibition at 10 µM [12] was 7% and the inhibition at 10 µM [13] was 10%. For the same compound, the “% inhibition at 10 μM” value [14] was 3%, the “% inhibition at 10 μM” value [15] was 1% and the inhibition at 10 µM [16] was 28%. The inhibition at 10 µM [17] was 58%, the “% inhibition at 10 μM” value [18] was 27% and the inhibition at 10 µM [19] was 5%. It also gave an inhibition at 10 µM [20] of 2%.
For `Cc1ccc(Cc2cc3c(=O)n([C@H]4CCCC[C@@H]4O)cnc3c3ccccc23)cn1` [MK‐7622, 3‐((1S,2S)‐2‐hydroxycyclohexyl)‐6‐((6‐methylpyridin‐3‐yl)methyl)benzo[h]quinazolin‐4(3H)‐one, reference compound], the pEC50 [1] was 6.39, the “margin between PAM and agonist activities” value [1] was 313 fold and the “Cooperativity α” value [2] was 511. For the same compound, the “Cooperativity Log α” value [2] was 2.71 (2.48‐2.94).
